How the values were obtained:
[1] = test system: RA response element (RARE); experiment: RARE luciferase reporter gene assay in MG5 cells; format: cell-based, mouse; conditions: pGL3-RARE-Luc; 5 μM each, 24 h; fold induction relative to vehicle-treated cells
Description: MG5 cells (2×10^6 cells in 100 μl) were transfected by electroporation with 1.0 μg of pGL3-RARE-Luc (#13458; Addgene) or pGL3-Luc vector (Promega) and 0.25 μg of Renilla luciferase vector (phRL-TK) (Promega), using the Nucleofector transfection system (program #D-032; Amaxa) according to the manufacturer's protocol, taken up in the medium, and seeded in 48-well plates (1.25×10^5 cells/well). For some experiments, cells were transfected with 1.0 μg of pGL3-RARE-Luc or pGL3-Luc vector and 0.25 μg of phRL-TK in the presence of 0.25 μg each of pcDNA3.1-RAR (#16287; Addgene) and pcDNA3.1-RXR (#8882; Addgene). An empty pcDNA3.1 expression vector was used to maintain equal amounts of DNA for each transfection. Five hours after transfection, the cells were exposed to Am80 (5 μM) and/or HX630 (5 μM) in the medium for 24 h. Luciferase activities were determined in cell lysates. Firefly luciferase activity was normalized to that of Renilla luciferase for each well.

[2] = test system: IL-4Rα; experiment: Immunoblot of IL-4Rα in MG5 cells; format: cell-based, mouse; conditions: 5 μM each, 48 h
Source text: Primary microglia (type 1) were harvested from primary mixed glial cell cultures prepared from neonatal Wistar rat pups, as previously reported. Mouse microglial cell line MG5 and mouse glial cell line A1 were maintained as previously described. Mouse neuroblastoma cell line N1E-115 and Neuro 2a (American Type Culture Collection, Manassas, Va., USA) were maintained in Dulbecco's modified Eagle's medium (DMEM) supplemented with 10% fetal bovine serum (FBS), 20 U/ml penicillin (Invitrogen, Gaithersburg, Md., USA), and 20 μg/ml streptomycin (Invitrogen). Primary rat microglia were treated with Am80 (5 μM) and/or HX630 (5 μM) in the presence and absence of GW9662 (10 μM) for 48 h in Eagle's MEM supplemented with 10% FBS and 0.2% glucose. MG5 cells and A1 cells were treated with Am80 (5 μM) and/or HX630 (5 μM) for 48 h in DMEM containing 10% FBS. […]
Rat primary microglia and mouse microglial MG5 cells (5×10^6 cells per 100-mm dish) were homogenized in RIPA buffer [10 mM Hepes-NaOH (pH 7.4) containing 150 mM NaCl, 1 mM EDTA, 1% Triton X-100, 0.5% sodium deoxycholate, 0.1% SDS, 1 mM PMSF, 1 mg/ml leupeptin. […] Bound horseradish peroxidase-labeled antibodies were then detected via chemiluminescence (an ECL kit; Pierce, Rockford, Ill., USA). Protein concentrations were determined with the BCA Protein Assay Reagent (Pierce) and Bradford Protein Assay Reagent (Pierce).

SMILES | RARE reporter activity in MG5 cells [1] | IL-4Rα protein levels in MG5 cells [2]
CN1c2ccccc2N=C(c2ccc(C(=O)O)cc2)c2cc3c(cc21)C(C)(C)CCC3(C)C [HX630, 4-[5H-2,3-(2,5dimethyl-2,5-hexano)-5-methyldibenzo[b,e]-diazepin-11-yl]benzoic acid] | no increase | did not increase
CC1(C)CCC(C)(C)c2cc(NC(=O)c3ccc(C(=O)O)cc3)ccc21 [Am80, 4-{(5,6,7,8-tetrahydro-5,5,8,8-tetramethyl-2-naphthalenyl)carbamoyl}benzoic acid] | 4.3 fold | did not increase
